Ten molecules from ChEMBL document CHEMBL1201862, “PubChem BioAssay data set” (2004) can be followed below.

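48-hour exposure; five concentrations; linearly interpolated endpoints. GI50 is the concentration that inhibits growth by half.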 Calls of active or inactive are those of the source. Rule as the data show it: active = GI50 up to about 1.1 µM and inactive = higher. Where only a bound is given, the exact number is not on record here.

Test systems include CAKI-1; CCRF-CEM; COLO 205; HCT-116; HCT-15; HL-60; HOP-92; HT-29; KM12; NCI-H23; RXF 393; SF-295; SK-MEL-5; SK-OV-3; SN12C; SR; SW-620; TK-10; UACC-257; UACC-62.
Holding throughout (experiment): NCI-60 cell line screen, 48 h

Take `COc1ccc(CCn2cnc3ccccc32)cc1`: the GI50 is > 100 µM (inactive) in the test on CAKI-1; > 100 µM (inactive) with CCRF-CEM; > 100 µM (inactive) in the test on COLO 205; > 100 µM (inactive) with HCT-116; over 100 µM in the test on HCT-15; > 100 µM (inactive) in the test on HL-60. Further, the GI50 with HOP-92, in the test on HT-29, in the test on KM12, in the test with NCI-H23, in the test on RXF 393 and with SF-295 was > 100 µM (inactive) in each case. For the same molecule, the GI50 in the test with SK-MEL-5, with SK-OV-3, with SN12C, in the test with SR, with SW-620 and in the test with TK-10 was > 100 µM (inactive) in each case. In addition, the GI50 in the test on UACC-257 and in the test with UACC-62 was > 100 µM (inactive) in each case.

In the case of `CO/C=C(/C(=O)OC)[C@@H]1C[C@@H]1c1ccc2ccccc2c1`, the GI50 was 21.6 µM (inactive) in the test with CAKI-1; 27.6 µM (inactive) in the test on CCRF-CEM; 18.3 µM (inactive) in the test with COLO 205; 18.1 µM (inactive) in the test on HCT-116; 18.8 µM with HCT-15; 18.3 µM (inactive) with HL-60. Further, the GI50 is 19.8 µM (inactive) in the test with HOP-92; 19.1 µM (inactive) with HT-29; 21.7 µM (inactive) in the test on KM12; 28.2 µM (inactive) in the test on NCI-H23; 44.1 µM (inactive) in the test on RXF 393; 37.2 µM (inactive) in the test on SF-295. The GI50 with SK-MEL-5 is 16.4 µM (inactive); in the test on SK-OV-3, 22.2 µM (inactive); with SN12C, 32.7 µM (inactive); in the test with SR, 13.2 µM (inactive); with TK-10, 37.5 µM (inactive); with UACC-257, 26 µM (inactive). The GI50 in the test with UACC-62 is 32.5 µM (inactive).

Take `ClC1CCC2OOC1O2` (centres undefined): the GI50 with CAKI-1 was > 100 µM (inactive); with CCRF-CEM, 54 µM (inactive); in the test on COLO 205, > 100 µM (inactive); in the test with HCT-116 it was 61.1 µM (inactive); in the test with HCT-15 it was 87.3 µM; in the test on HL-60, 32.2 µM (inactive). The GI50 is > 100 µM (inactive) in the test on HOP-92; 89.5 µM (inactive) in the test with HT-29; > 100 µM (inactive) in the test with KM12; > 100 µM (inactive) in the test on NCI-H23; > 100 µM (inactive) in the test with RXF 393; > 100 µM (inactive) in the test on SF-295. The GI50 with SK-MEL-5, in the test on SK-OV-3, in the test on SN12C, in the test on SR, with SW-620 and in the test with TK-10 was > 100 µM (inactive) in each case. The GI50 is > 100 µM (inactive) in the test with UACC-257 and 89.1 µM (inactive) in the test with UACC-62.

Turning to `Cc1ccc(S(=O)(=O)C2=c3ncccc3=C3C(=O)c4ccccc4C(=O)C32)cc1` (centres undefined), the GI50 is 64.6 µM (inactive) with CAKI-1; > 95.1 µM (inactive) with CCRF-CEM; > 100 µM (inactive) in the test on COLO 205; 71.6 µM (inactive) in the test on HCT-116; over 10 µM in the test on HCT-15; 99.5 µM (inactive) in the test with HL-60. Besides, the GI50 is 25.4 µM (inactive) in the test with HOP-92; > 100 µM (inactive) with HT-29; > 9.95 µM (inactive) with KM12; 64 µM (inactive) in the test on NCI-H23; 16 µM (inactive) in the test with RXF 393; 43.1 µM (inactive) with SF-295. For the same molecule, the GI50 is 2.79 µM (inactive) with SK-MEL-5; 38.2 µM (inactive) in the test with SK-OV-3; > 100 µM (inactive) in the test with SN12C; > 100 µM (inactive) in the test on SR; > 100 µM (inactive) with SW-620; 8.65 µM (inactive) with TK-10. In addition, the GI50 with UACC-257 is 66.7 µM (inactive); in the test on UACC-62 it was 23 µM (inactive).

Take `C=C(CC[C@@H](C)[C@H]1CC[C@@]2(C)C3=C(CC[C@]12C)[C@@]1(C)CC[C@H](O)[C@@H](C)C1CC3)C(C)C` (some centres undefined): the GI50 is 1.15 µM (inactive) with CAKI-1; 0.414 µM (active) with CCRF-CEM; 1.17 µM (inactive) in the test with COLO 205; 1.31 µM (inactive) in the test with HCT-116; 1.2 µM in the test with HCT-15; 0.361 µM (active) in the test on HL-60. The GI50 was 1.18 µM (inactive) in the test with HOP-92; 0.48 µM (active) with HT-29; 1.26 µM (inactive) in the test on KM12; 1.28 µM (inactive) in the test with NCI-H23; 1.37 µM (inactive) in the test on RXF 393; 1.08 µM (active) in the test on SF-295. The GI50 is 1.26 µM (inactive) in the test on SK-MEL-5; 1.6 µM (inactive) in the test with SK-OV-3; 1.44 µM (inactive) in the test with SN12C; 1.01 µM (active) in the test with SR; 1.71 µM (inactive) in the test with SW-620; 1.35 µM (inactive) in the test with TK-10. The GI50 with UACC-257 is 1.49 µM (inactive); in the test with UACC-62 it was 1.43 µM (inactive).

Take `COC(=O)Nc1nc2ccc(S(=O)(=O)SC)cc2[nH]1`: the GI50 is 4.88 µM (inactive) in the test on CAKI-1; 3.52 µM (inactive) in the test with CCRF-CEM; 4.28 µM (inactive) in the test with COLO 205; 4.68 µM (inactive) in the test on HCT-116; 3.89 µM with HCT-15; 2.38 µM (inactive) in the test on HL-60. The GI50 with HOP-92 was 6.35 µM (inactive); in the test with HT-29, 3.28 µM (inactive); in the test with KM12 it was 5.45 µM (inactive); in the test with RXF 393, 5.46 µM (inactive); with SF-295 it was 7.8 µM (inactive); with SK-MEL-5, 5.28 µM (inactive). In addition, the GI50 is 8.39 µM (inactive) with SK-OV-3; 10.9 µM (inactive) with SN12C; 3.72 µM (inactive) with SR; 3.73 µM (inactive) in the test on SW-620; 8.09 µM (inactive) in the test on TK-10; 10.8 µM (inactive) with UACC-257. In addition, in the test with UACC-62, the GI50 is 3.9 µM (inactive).

Take `CC(=O)O[C@]1(C(C)=O)CC[C@H]2[C@@H]3C[C@H](C)C4=CC(=O)C=C[C@]4(C)[C@@]3(F)[C@@H](O)C[C@@]21C` [FLUOROMETHOLONE ACETATE]: the GI50 in the test on CAKI-1 is 96.4 µM (inactive); in the test with CCRF-CEM, 0.213 µM (active); in the test with COLO 205, > 100 µM (inactive); in the test with HCT-116, > 100 µM (inactive); in the test with HCT-15, 19.6 µM; in the test on HL-60, 37.6 µM (inactive). For the same molecule, the GI50 in the test with HOP-92 was 85.7 µM (inactive); with HT-29 it was 56.1 µM (inactive); in the test with KM12, > 100 µM (inactive); with NCI-H23, 63.8 µM (inactive); in the test on RXF 393, 23.7 µM (inactive); with SF-295 it was 66.7 µM (inactive). Also, the GI50 with SK-MEL-5 was 28.9 µM (inactive); in the test on SK-OV-3, < 0.01 µM (active); in the test with SR, 24.7 µM (inactive); in the test with SW-620, 53.2 µM (inactive); in the test with TK-10 it was 67 µM (inactive); in the test with UACC-257, 31.1 µM (inactive). The GI50 in the test on UACC-62 was 23.7 µM (inactive).

As to `CN(NC(=O)c1ccc(Cl)cc1)C1=NCCCCN1`, the GI50 in the test on CAKI-1 is > 100 µM (inactive); in the test with CCRF-CEM, > 100 µM (inactive); with COLO 205, > 100 µM (inactive); with HCT-116 it was > 100 µM (inactive); in the test on HCT-15, over 100 µM; in the test on HL-60 it was > 100 µM (inactive). Further, the GI50 in the test on HOP-92, with HT-29, in the test with KM12, with NCI-H23, in the test on RXF 393 and in the test on SF-295 was > 100 µM (inactive) each time. Further, the GI50 in the test on SK-MEL-5, in the test with SK-OV-3, with SR, in the test with SW-620, in the test with TK-10 and in the test on UACC-257 was > 100 µM (inactive) each time. For the same molecule, the GI50 in the test with UACC-62 was > 100 µM (inactive).

As for `Cc1ccc(SC(CCC(Sc2ccc(C)cc2)Sc2ccc(C)cc2)Sc2ccc(C)cc2)cc1`, the GI50 with CAKI-1 was > 100 µM (inactive); in the test with CCRF-CEM it was > 100 µM (inactive); in the test on COLO 205 it was > 100 µM (inactive); with HCT-116, > 100 µM (inactive); in the test with HCT-15, over 100 µM; in the test on HL-60, > 100 µM (inactive). Further, the GI50 in the test on HOP-92 was 71.1 µM (inactive); in the test on KM12 it was > 100 µM (inactive); in the test on NCI-H23, > 100 µM (inactive); in the test on RXF 393, > 100 µM (inactive); in the test on SF-295 it was > 100 µM (inactive); with SK-MEL-5 it was > 100 µM (inactive). Further, the GI50 with SK-OV-3, with SN12C, with SR, with SW-620, with TK-10 and with UACC-257 was > 100 µM (inactive) in each case. In addition, in the test with UACC-62, the GI50 is > 100 µM (inactive).

For `CCCNC(=O)Nc1c([N+](=O)[O-])cc(C(F)(F)F)cc1[N+](=O)[O-]`, the GI50 in the test with CAKI-1 is > 100 µM (inactive); in the test on CCRF-CEM it was > 100 µM (inactive); in the test with COLO 205, > 10 µM (inactive); in the test on HCT-116 it was 25.3 µM (inactive); with HCT-15 it was 51.8 µM; in the test with HL-60 it was 24.5 µM (inactive). In addition, the GI50 was > 100 µM (inactive) in the test with HOP-92; 37.4 µM (inactive) with HT-29; 55.5 µM (inactive) with KM12; 43 µM (inactive) with NCI-H23; 11 µM (inactive) in the test with RXF 393; 84.9 µM (inactive) in the test on SF-295. Moreover, the GI50 in the test with SK-MEL-5 is 28.4 µM (inactive); in the test on SK-OV-3 it was > 100 µM (inactive); in the test with SR it was 92.9 µM (inactive); in the test with SW-620, 40.8 µM (inactive); in the test with TK-10, > 100 µM (inactive); with UACC-257 it was 36.3 µM (inactive). In addition, the GI50 with UACC-62 is 37.3 µM (inactive).
